Source: PubChem BioAssay (NCI)
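Five concentrations, 48 hours, 96-well plates. GI50 = concentration required for 50% inhibition of growth. The concentration for full growth arrest is given as TGI.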

Experiments:
Experiment in all cases: growth of human tumour cells (NCI), 48 h
786-0 renal = tested on: 786-0 renal
A498 renal = tested on: A498 renal
A549 NSCLC = tested on: A549 NSCLC
ACHN renal = tested on: ACHN renal
BT-549 breast = tested on: BT-549 breast
CCRF-CEM leukemia = tested on: CCRF-CEM leukemia
COLO 205 colon = tested on: COLO 205 colon
DU-145 prostate = tested on: DU-145 prostate
EKVX NSCLC = tested on: EKVX NSCLC
HCC-2998 colon = tested on: HCC-2998 colon
HCT-116 colon = tested on: HCT-116 colon
HCT-15 colon = tested on: HCT-15 colon
HL-60(TB) leukemia = tested on: HL-60(TB) leukemia
HOP-62 NSCLC = tested on: HOP-62 NSCLC
HOP-92 NSCLC = tested on: HOP-92 NSCLC
HS 578T breast = tested on: HS 578T breast
HT29 colon = tested on: HT29 colon
IGROV1 ovarian = tested on: IGROV1 ovarian
K-562 leukemia = tested on: K-562 leukemia
KM12 colon = tested on: KM12 colon
LOX IMVI melanoma = tested on: LOX IMVI melanoma
M14 melanoma = tested on: M14 melanoma
MALME-3M melanoma = tested on: MALME-3M melanoma
MCF7 breast = tested on: MCF7 breast
MDA-MB-231 breast = tested on: MDA-MB-231 breast
MDA-MB-435 = tested on: MDA-MB-435
MOLT-4 leukemia = tested on: MOLT-4 leukemia
NCI-H226 lung = tested on: NCI-H226 lung
NCI-H23 lung = tested on: NCI-H23 lung
NCI-H460 lung = tested on: NCI-H460 lung
NCI-H522 lung = tested on: NCI-H522 lung
NCI/ADR-RES ovarian = tested on: NCI/ADR-RES ovarian
OVCAR-3 ovarian = tested on: OVCAR-3 ovarian
OVCAR-4 ovarian = tested on: OVCAR-4 ovarian
OVCAR-5 ovarian = tested on: OVCAR-5 ovarian
OVCAR-8 ovarian = tested on: OVCAR-8 ovarian
PC-3 prostate = tested on: PC-3 prostate
RPMI-8226 leukemia = tested on: RPMI-8226 leukemia
RXF 393 renal = tested on: RXF 393 renal
SF-268 CNS = tested on: SF-268 CNS
SF-539 CNS = tested on: SF-539 CNS
SK-MEL-2 melanoma = tested on: SK-MEL-2 melanoma
SK-MEL-28 melanoma = tested on: SK-MEL-28 melanoma
SK-MEL-5 melanoma = tested on: SK-MEL-5 melanoma
SK-OV-3 ovarian = tested on: SK-OV-3 ovarian
SN12C renal = tested on: SN12C renal
SNB-19 CNS = tested on: SNB-19 CNS
SNB-75 CNS = tested on: SNB-75 CNS
SR leukemia = tested on: SR leukemia
SW-620 colon = tested on: SW-620 colon
T-47D breast = tested on: T-47D breast
TK-10 renal = tested on: TK-10 renal
U251 CNS = tested on: U251 CNS
UACC-257 melanoma = tested on: UACC-257 melanoma
UACC-62 melanoma = tested on: UACC-62 melanoma
UO-31 renal = tested on: UO-31 renal
CAKI-1 renal = tested on: CAKI-1 renal
SF-295 CNS = tested on: SF-295 CNS

## COc1cnc2c(c1)C(=O)c1c-2n(CCCN2CCNCC2)c(=O)c2cc(F)ccc12
786-0 renal
  GI50: 127 nM
  TGI: 511 nM
A498 renal
  GI50: 352 nM
  TGI: 1900 nM
A549 NSCLC
  GI50: 16.4 nM
  TGI: 219 nM
ACHN renal
  GI50: 55.3 nM
  TGI: 554 nM
BT-549 breast
  GI50: 1250 nM
  TGI: 4320 nM
CCRF-CEM leukemia
  GI50: 42.1 nM
  TGI: 1060 nM
COLO 205 colon
  GI50: 150 nM
  TGI: 1440 nM
DU-145 prostate
  GI50: 62.3 nM
  TGI: 1150 nM
EKVX NSCLC
  GI50: 441 nM
  TGI: 2080 nM
HCC-2998 colon
  GI50: 1050 nM
  TGI: 2560 nM
HCT-116 colon
  GI50: 91.9 nM
  TGI: 1310 nM
HCT-15 colon
  GI50: 126 nM
  TGI: 1300 nM
HL-60(TB) leukemia
  GI50: 92.7 nM
  TGI: 682 nM
HOP-62 NSCLC
  GI50: 66.5 nM
  TGI: 352 nM
HOP-92 NSCLC
  GI50: 139 nM
  TGI: 2950 nM
HS 578T breast
  GI50: 2080 nM
  TGI: 16900 nM
HT29 colon
  GI50: 150 nM
  TGI: 680 nM
IGROV1 ovarian
  GI50: 478 nM
  TGI: 2340 nM
K-562 leukemia
  GI50: 148 nM
  TGI: 1440 nM
KM12 colon
  GI50: 168 nM
  TGI: 1160 nM
LOX IMVI melanoma
  GI50: 180 nM
  TGI: 1320 nM
M14 melanoma
  GI50: 366 nM
  TGI: 1880 nM
MALME-3M melanoma
  GI50: 1130 nM
  TGI: 2560 nM
MCF7 breast
  GI50: 34.5 nM
  TGI: 1410 nM
MDA-MB-231 breast
  GI50: 479 nM
  TGI: 1940 nM
MDA-MB-435
  GI50: 578 nM
  TGI: 2010 nM
MOLT-4 leukemia
  GI50: 27.5 nM
  TGI: 164 nM
NCI-H226 lung
  GI50: 150 nM
  TGI: 507 nM
NCI-H23 lung
  GI50: 233 nM
  TGI: 1470 nM
NCI-H460 lung
  GI50: 25.2 nM
  TGI: 275 nM
NCI-H522 lung
  GI50: 118 nM
  TGI: 1350 nM
NCI/ADR-RES ovarian
  GI50: 865 nM
  TGI: 4430 nM
OVCAR-3 ovarian
  GI50: 335 nM
  TGI: 1630 nM
OVCAR-4 ovarian
  GI50: 892 nM
  TGI: 2490 nM
OVCAR-5 ovarian
  GI50: 334 nM
  TGI: 1510 nM
OVCAR-8 ovarian
  GI50: 126 nM
  TGI: 1250 nM
PC-3 prostate
  GI50: 596 nM
  TGI: 2510 nM
RPMI-8226 leukemia
  GI50: 50.5 nM
  TGI: 458 nM
RXF 393 renal
  GI50: 270 nM
  TGI: 1730 nM
SF-268 CNS
  GI50: 282 nM
  TGI: 1860 nM
SF-539 CNS
  GI50: 532 nM
  TGI: 1830 nM
SK-MEL-2 melanoma
  GI50: 1710 nM
  TGI: 3370 nM
SK-MEL-28 melanoma
  GI50: 1520 nM
  TGI: 3030 nM
SK-MEL-5 melanoma
  GI50: 217 nM
  TGI: 1650 nM
SK-OV-3 ovarian
  GI50: 210 nM
  TGI: 916 nM
SN12C renal
  GI50: 80.6 nM
  TGI: 890 nM
SNB-19 CNS
  GI50: 130 nM
  TGI: 1240 nM
SNB-75 CNS
  GI50: 368 nM
  TGI: 2870 nM
SR leukemia
  GI50: 50 nM
  TGI: 863 nM
SW-620 colon
  GI50: 110 nM
  TGI: 1460 nM
T-47D breast
  GI50: 266 nM
  TGI: 13200 nM
TK-10 renal
  GI50: 267 nM
  TGI: 1430 nM
U251 CNS
  GI50: 84.1 nM
  TGI: 1050 nM
UACC-257 melanoma
  GI50: 1290 nM
  TGI: 2690 nM
UACC-62 melanoma
  GI50: 1260 nM
  TGI: 3020 nM
UO-31 renal
  GI50: 133 nM
  TGI: 1120 nM

## O=c1c2cc(F)ccc2sc2c(NCCCNCCO)nc3ccc(F)cc3c12
786-0 renal
  GI50: 1630 nM
  TGI: 3320 nM
A498 renal
  GI50: 2240 nM
  TGI: 7210 nM
A549 NSCLC
  GI50: 1920 nM
  TGI: 4400 nM
ACHN renal
  GI50: 1540 nM
  TGI: 2890 nM
BT-549 breast
  GI50: 11100 nM
  TGI: 26700 nM
CAKI-1 renal
  GI50: 1530 nM
  TGI: 2970 nM
CCRF-CEM leukemia
  GI50: 2240 nM
  TGI: 5080 nM
DU-145 prostate
  GI50: 1760 nM
  TGI: 3190 nM
EKVX NSCLC
  GI50: 1520 nM
  TGI: 3070 nM
HCC-2998 colon
  GI50: 1640 nM
  TGI: 3180 nM
HCT-116 colon
  GI50: 1840 nM
  TGI: 3630 nM
HCT-15 colon
  GI50: 1490 nM
  TGI: 2910 nM
HOP-62 NSCLC
  GI50: 1610 nM
  TGI: 3530 nM
HOP-92 NSCLC
  GI50: 1310 nM
  TGI: 5200 nM
HS 578T breast
  GI50: 1790 nM
  TGI: 4100 nM
HT29 colon
  GI50: 1820 nM
  TGI: 3740 nM
IGROV1 ovarian
  GI50: 1250 nM
  TGI: 2650 nM
K-562 leukemia
  GI50: 2340 nM
  TGI: 6680 nM
KM12 colon
  GI50: 1840 nM
  TGI: 3580 nM
LOX IMVI melanoma
  GI50: 1570 nM
  TGI: 3060 nM
M14 melanoma
  GI50: 1850 nM
  TGI: 3670 nM
MALME-3M melanoma
  GI50: 1630 nM
  TGI: 3150 nM
MCF7 breast
  GI50: 1620 nM
  TGI: 3200 nM
MDA-MB-231 breast
  GI50: 1450 nM
  TGI: 2880 nM
MDA-MB-435
  GI50: 1710 nM
  TGI: 3200 nM
NCI-H226 lung
  GI50: 1760 nM
  TGI: 3520 nM
NCI-H23 lung
  GI50: 1810 nM
  TGI: 3280 nM
NCI-H460 lung
  GI50: 1630 nM
  TGI: 3240 nM
NCI-H522 lung
  GI50: 1910 nM
  TGI: 4030 nM
NCI/ADR-RES ovarian
  GI50: 1670 nM
  TGI: 3220 nM
OVCAR-3 ovarian
  GI50: 1780 nM
  TGI: 3380 nM
OVCAR-4 ovarian
  GI50: 2030 nM
  TGI: 4430 nM
OVCAR-5 ovarian
  GI50: 1620 nM
  TGI: 3040 nM
OVCAR-8 ovarian
  GI50: 2090 nM
  TGI: 4750 nM
PC-3 prostate
  GI50: 1670 nM
  TGI: 3300 nM
RPMI-8226 leukemia
  GI50: 2300 nM
  TGI: 5100 nM
RXF 393 renal
  GI50: 1510 nM
  TGI: 2950 nM
SF-268 CNS
  GI50: 1570 nM
  TGI: 3220 nM
SF-295 CNS
  GI50: 1770 nM
  TGI: 3230 nM
SF-539 CNS
  GI50: 1680 nM
  TGI: 3120 nM
SK-MEL-2 melanoma
  GI50: 2040 nM
  TGI: 4340 nM
SK-MEL-28 melanoma
  GI50: 1780 nM
  TGI: 3250 nM
SK-MEL-5 melanoma
  GI50: 1700 nM
  TGI: 3150 nM
SN12C renal
  GI50: 1580 nM
  TGI: 3050 nM
SNB-19 CNS
  GI50: 1720 nM
  TGI: 3290 nM
SNB-75 CNS
  GI50: 1510 nM
  TGI: 3270 nM
SR leukemia
  GI50: 3410 nM
  TGI: > 100000 nM
SW-620 colon
  GI50: 1730 nM
  TGI: 3480 nM
T-47D breast
  GI50: 1940 nM
  TGI: 4480 nM
TK-10 renal
  GI50: 1900 nM
  TGI: 3700 nM
UACC-257 melanoma
  GI50: 1980 nM
  TGI: 4030 nM
UACC-62 melanoma
  GI50: 1720 nM
  TGI: 3250 nM
UO-31 renal
  GI50: 1110 nM
  TGI: 2370 nM
